Data from patent US20170202939A1, “PERSONALIZED CANCER VACCINES AND METHODS THEREFOR” (Washington University, priority 2014, published 2017).
No end group written: not given here.

Target: T1, soluble HLA-A*02:01 from TMC expressing A375 melanoma cells (Homo sapiens, UniProt P04439, D140Y/D185E/D98H/E176V/E277Q/G131W/G231S/I119V/I121R/I166T/I218V/L300P/L318F/N151K/N90K/P208A/P217A/Q86G/Q94H/R138H/R169H/T345S)
T1 construct: TMC expressing A375 melanoma cells were transfected with soluble HLA-A*02:01(sHLA-A*02:01); expressed in transfected cells; host or cells: A375 melanoma cells expressing the MEL218 AAS tandem mini-gene construct
Assay: proteomic analysis (RP-HPLC, LC/MS) of peptides eluted from soluble HLA-A*02:01
Details: A375 melanoma cells expressing MEL218 TMC
Description: To validate neoantigen processing and presentation, proteomic analysis was performed on peptides eluted from soluble HLA-A*02:01 molecules isolated from melanoma cells expressing a TMC encoding AAS candidates from patient MEL218 tumor (Sercarz, E. E., et al., Annu. Rev. Imunol., 11, 729-766, 1993; Assarsson, E., et al., J. Immunol., 178, 7890-7901, 2007). TMC expressing A375 melanoma cells were transfected with soluble HLA-A*02:01(sHLA-A*02:01) and single cell sorted for a high (>1000 ng/ml in static culture) sHLAA*02:01 producing clone. The sHLA-A*02:01 construct includes a C-terminal VLDLr epitope purification tag ([…] ID NO. 32) that is recognized by the anti-VLDLr mAb (ATCC CRL-2197). This antibody was also used for quantification of sHLA production as the capture antibody in a sandwich ELISA, with an antibody directed against β2-microglobulin (Dako Cytomation) as the detector antibody. Cells were grown in roller bottles and sHLA/peptide complexes were purified from supernatants by affinity chromatography with the anti-VLDLr antibody (Kaabinejadian, S., et al., P.L.o.S. One, 8, e66298, 2013). Eluate fractions containing sHLA/peptide complexes were brought to a final acetic acid concentration of 10%, pooled, and heated to 78° C. in a water bath. Peptides were purified through a 3 kDa molecular weight cutoff cellulose membrane (EMD Millipore) and lyophilized.
Synthetic peptides corresponding to the mutant sequences were resuspended in 10% acetic acid in water at 1 μM, and fractionated by RP-HPLC with an acetonitrile gradient in 10 mM ammonium formate at pH 10. Peptide-containing fractions were dried and resuspended in 25 ul of 10% acetic acid and subjected to nanoscale RP-HPLC at pH 2.5 utilizing an Eksigent nanoLC coupled to a TripleTOF 5600 (AB Sciex) quadrupole time-of-flight mass spectrometer (LC/MS). Information dependent acquisition (IDA) was used to obtain MS and MS/MS fragment spectra for peptide ions. The sequence of each peptide was determined by observed mass and fragment ions, and the 1st dimension fraction number and LC/MS retention times were recorded.
Next, peptides purified from TMC expressing A375 melanoma cells were resuspended in 10% acetic acid and HPLC fractionated under the same conditions and gradient method. Reverse phase HPLC was used to reduce the complexity and determine the elution profile of the pool of soluble HLA-A*02:01 restricted peptides presented by melanoma cells, as well as, the synthetic AAS peptide mixture. FIGS. 40A and 40E illustrate RP-HPLC fractionation of HLA-A*02:01 peptides eluted from the AAS-TMC expressing melanoma cell line (solid trace) and the synthetic peptide mixture containing MEL218 neoantigen candidates (dashed trace), with fraction 50 (FIG. 40A) and fraction 44 (FIG. 40E) indicated. […]

Row | Sequence | HLA-A*02:01 presentation by LC/MS of eluted peptides
1 | IILVAVPHV | confirmed HLA-A*02:01 presentation
2 | MLGEQLFPL | demonstrated the HLA-A*02:01 presentation
